Experimental data from patent US10059703B2, “3-alkyl-5-fluoro-4-substituted-imino-3,4-dihydropyrimidin-2(1H)-one derivatives as fungicides” (Adama Makhteshim Ltd., priority 2012, dated 2018).
Where two headings read alike, the source gives them in different places.

What was measured:
Septoria tritici = experiment: Fungicidal activity: leaf blotch of wheat, one-day protectant and three-day curative tests on wheat plants; assay type: in vivo; conditions: Zymoseptoria tritici
Method: Example 16: Evaluation of Fungicidal Activity: Leaf Blotch of Wheat (Mycosphaerella graminicola; anamorph: Septoria tritici; Bayer code SEPTTR)
Wheat plants (variety Yuma) were grown from seed in a greenhouse in 50% mineral soil/50% soil-less Metro mix until the first leaf was fully emerged, with 7-10 seedlings per pot. These plants were inoculated with an aqueous spore suspension of Septoria tritici either prior to or after fungicide treatments. After inoculation the plants were kept in 100% relative humidity (one day in a dark dew chamber followed by two to three days in a lighted dew chamber) to permit spores to germinate and infect the leaf. The plants were then transferred to a greenhouse for disease to develop.
(§1) The following tables present the activity of typical compounds of the present disclosure when evaluated in these experiments. The effectiveness of the test compounds in controlling disease was determined by assessing the severity of disease on treated plants, then converting the severity to percent control based on the level of disease on untreated, inoculated plants.
as §1, with “table presents” for “tables present”

[1] = 24 h, One-Day Protectant (1 DP), 100 ppm, wheat plants (variety Yuma), read-out: SEPTTR 100 PPM 1 DP (% Disease Control rating)
[2] = 72 h, Three-Day Curative (3 DC), 100 ppm, wheat plants (variety Yuma), read-out: SEPTTR 100 PPM 3 DC (% Disease Control rating)
[3] = 24 h, read-out: SEPTTR 100 PPM 1 DP (% Disease Control rating)
[4] = 72 h, read-out: SEPTTR 100 PPM 3 DC (% Disease Control rating)

Row | SMILES | pest or weed control at 100 ppm (Septoria tritici; [1]) [%] | pest or weed control at 100 ppm (Septoria tritici; [2]) [%] | melting point [°C] | pest or weed control at 100 ppm (Septoria tritici; [3]) [%] | pest or weed control at 100 ppm (Septoria tritici; [4]) [%]
1 | Cc1ccc(S(=O)(=O)n2cc(F)/c(=N\C(=O)c3ccccc3)n(C(=O)c3ccccc3)c2=O)cc1 [Compound F37, (E)-N-(3-benzoyl-5-fluoro-2-oxo-1-tosyl-2,3-dihydropyrimidin-4(1H)-ylidene)benzamide] | 0 to 25 | 0 to 25 | 180.8 to 182.2 |  | 
2 | Cn1c(=O)n(S(=O)(=O)c2ccccc2)cc(F)/c1=N\C(=O)Oc1ccccc1 [Compound F38] |  |  | 170 to 171 | 76 to 100 | 76 to 100
3 | Cc1ccc(S(=O)(=O)n2cc(F)/c(=N\C(=O)Oc3ccccc3)n(C)c2=O)cc1 [Compound F39] |  |  | 200 to 202 | 26 to 50 | 26 to 50
4 | CCc1ccc(S(=O)(=O)n2cc(F)/c(=N\C(=O)Oc3ccccc3)n(C)c2=O)cc1 [Compound F40] |  |  | 188 to 190 | 0 to 25 | 0 to 25
5 | CC(C)c1ccc(S(=O)(=O)n2cc(F)/c(=N\C(=O)Oc3ccccc3)n(C)c2=O)cc1 [Compound F41] |  |  | 180 to 181 | 0 to 25 | 0 to 25
6 | Cc1cccc(S(=O)(=O)n2cc(F)/c(=N\C(=O)Oc3ccccc3)n(C)c2=O)c1 [Compound F42] |  |  | 187 to 188 | 76 to 100 | 0 to 25
7 | Cc1cc(S(=O)(=O)n2cc(F)/c(=N\C(=O)Oc3ccccc3)n(C)c2=O)c(C)cc1Cl [Compound F43] |  |  | 209 to 211 | 0 to 25 | 0 to 25
8 | Cn1c(=O)n(S(=O)(=O)c2cc(Cl)sc2Cl)cc(F)/c1=N\C(=O)Oc1ccccc1 [Compound F44] |  |  | 158 to 159 | 76 to 100 | 76 to 100
9 | COC(=O)/N=c1\c(F)cn(S(=O)(=O)c2ccccc2)c(=O)n1C [Compound F45] | 0 to 25 | 0 to 25 | 185 to 186 |  | 
10 | COC(=O)/N=c1\c(F)cn(S(=O)(=O)c2ccc(C)cc2)c(=O)n1C [Compound F46] | 0 to 25 | 0 to 25 | 145 to 146 |  | 
11 | CCc1ccc(S(=O)(=O)n2cc(F)/c(=N\C(=O)OC)n(C)c2=O)cc1 [Compound F47] | 0 to 25 | 0 to 25 | 125 to 126 |  | 
12 | COC(=O)/N=c1\c(F)cn(S(=O)(=O)c2ccc(C(C)C)cc2)c(=O)n1C [Compound F48] | 0 to 25 | 0 to 25 | 116 to 117 |  | 
13 | COC(=O)/N=c1\c(F)cn(S(=O)(=O)c2cccc(C)c2)c(=O)n1C [Compound F49] | 0 to 25 | 0 to 25 | 200 to 201 |  | 
14 | COC(=O)/N=c1\c(F)cn(S(=O)(=O)c2cc(C)c(Cl)cc2C)c(=O)n1C [Compound F50] | 0 to 25 | 0 to 25 | 178 to 179 |  | 
15 | COC(=O)/N=c1\c(F)cn(S(=O)(=O)c2cc(Cl)sc2Cl)c(=O)n1C [Compound F51] | 0 to 25 | 0 to 25 | 148 to 149 |  | 
16 | Cn1c(=O)n(S(=O)(=O)c2ccccc2)cc(F)/c1=N\Cc1ccccc1F [Compound F52] | 0 to 25 | 0 to 25 | 189 to 192 |  | 
17 | COc1ccc(S(=O)(=O)n2cc(F)/c(=N\Cc3ccccc3F)n(C)c2=O)cc1 [Compound F53, 5-fluoro-4-((2-fluorobenzyl)imino)-1-((4-methoxyphenyl)sulfonyl)-3-methyl-3,4-dihydropyrimidin-2(1H)-one] | 0 to 25 | 0 to 25 | 188 to 191 |  | 
18 | Cc1ccc(S(=O)(=O)n2cc(F)/c(=N\Cc3ccccc3F)n(C)c2=O)cc1 [Compound F54] | 0 to 25 | 0 to 25 | 184 to 187 |  | 
19 | CCc1ccc(S(=O)(=O)n2cc(F)/c(=N\Cc3ccccc3F)n(C)c2=O)cc1 [Compound F55] | 0 to 25 | 0 to 25 | 140 to 141 |  | 
20 | CC(C)c1ccc(S(=O)(=O)n2cc(F)/c(=N\Cc3ccccc3F)n(C)c2=O)cc1 [Compound F56] | 0 to 25 | 0 to 25 | 140 to 143 |  | 
21 | Cc1cccc(S(=O)(=O)n2cc(F)/c(=N\Cc3ccccc3F)n(C)c2=O)c1 [Compound F57] | 0 to 25 | 0 to 25 | 177 to 180 |  | 
22 | Cc1cc(S(=O)(=O)n2cc(F)/c(=N\Cc3ccccc3F)n(C)c2=O)c(C)cc1Cl [Compound F58] | 0 to 25 | 0 to 25 | 208 to 210 |  | 
23 | Cn1c(=O)n(S(=O)(=O)c2cc(Cl)sc2Cl)cc(F)/c1=N\Cc1ccccc1F [Compound F59] | 0 to 25 | 0 to 25 | 108 to 111 |  | 
